Laboratory results taken from the supplement of paper PMC11451515.

Assays:
Conditions in all cases: 48 h
NOMO1 [1] = experiment: cell viability relative to DMSO control; higher = less cytotoxic
Method in brief: (§1)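 Library compounds in DMSO were pin-dosed in an 11-point threefold series (47 μM to 0.79 nM) onto leukemia cells in 1536-well plates (5 μl). Plates held 500 cells/well of NOMO1 or SEM or 1000 cells/well of P12-Ichikawa, each adapted for at least four passages in each medium. Luminescence was read with CellTiter-Glo One after 48 h at 37°C. Viability means the per-plate percentage relative to DMSO wells, using cell-free wells as background.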

SEM cells [2] = experiment: as above
Method in brief: as §1

P12-Ichikawa [3] = experiment: as above
Method in brief: as §1

NOMO1 [4] = experiment: AUC of viability dose-response curve (% viability x log10 dose units); higher = less sensitive
Method in brief: (§2)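 Over 48 h at 37°C, leukemia cells in 1536-well plates (500 or 1000 cells/well), adapted to each medium, received library compounds in DMSO at 11 threefold doses from 47 μM to 0.79 nM. CellTiter-Glo One luminescence, normalised per plate to DMSO and cell-free wells, was fitted by a four-parameter log-logistic function of log10 dose. The area under the curve was then integrated by trapezoidal rule, after scaling curves above full viability and removing those that failed quality control.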

SEM cells [5] = experiment: as above
Method in brief: as §2

P12-Ichikawa [6] = experiment: as above
Method in brief: as §2

COc1c(C)c2c(c(O)c1C/C=C(\C)CCC(=O)OCCN1CCOCC1)C(=O)OC2
cell viability [%]
Conditions | NOMO1 [1] | P12-Ichikawa [3] | SEM cells [2]
HPLM + 10% dialyzed FBS, 0.000781 µM | 90.3 | 106 | 107
HPLM + 10% dialyzed FBS, 0.00234 µM | 91.9 | 114 | 110
HPLM + 10% dialyzed FBS, 0.00702 µM | 110 | 114 | 99.8
HPLM + 10% dialyzed FBS, 0.0211 µM | 122 | 104 | 117
HPLM + 10% dialyzed FBS, 0.0632 µM | 112 | 124 | 105
HPLM + 10% dialyzed FBS, 0.19 µM | 99.8 | 106 | 121
HPLM + 10% dialyzed FBS, 0.569 µM | 107 | 109 | 92.8
HPLM + 10% dialyzed FBS, 1.71 µM | 86.3 | 109 | 106
HPLM + 10% dialyzed FBS, 5.12 µM | 60.5 | 58.2 | 64.6
HPLM + 10% dialyzed FBS, 15.4 µM | 43.9 | 40.1 | 39.2
HPLM + 10% dialyzed FBS, 46.1 µM | 31.9 | 35.6 | 26.2
RPMI 5 mM glucose + 10% FBS, 0.000781 µM | 98.5 | 104 | 102
RPMI 5 mM glucose + 10% FBS, 0.00234 µM | 108 | 105 | 113
RPMI 5 mM glucose + 10% FBS, 0.00702 µM | 98 | 111 | 107
RPMI 5 mM glucose + 10% FBS, 0.0211 µM | 92.7 | 109 | 115
RPMI 5 mM glucose + 10% FBS, 0.0632 µM | 95 | 105 | 116
RPMI 5 mM glucose + 10% FBS, 0.19 µM | 110 | 106 | 116
RPMI 5 mM glucose + 10% FBS, 0.569 µM | 107 | 110 | 101
RPMI 5 mM glucose + 10% FBS, 1.71 µM | 122 | 93.9 | 95.8
RPMI 5 mM glucose + 10% FBS, 5.12 µM | 62.9 | 50.2 | 60.7
RPMI 5 mM glucose + 10% FBS, 15.4 µM | 38.8 | 30.1 | 38.7
RPMI 5 mM glucose + 10% FBS, 46.1 µM | 33.6 | 26 | 26
RPMI 5 mM glucose + 10% dialyzed FBS, 0.000781 µM | 102 | 109 | 110
RPMI 5 mM glucose + 10% dialyzed FBS, 0.00234 µM | 108 | 100 | 110
RPMI 5 mM glucose + 10% dialyzed FBS, 0.00702 µM | 102 | 100 | 101
RPMI 5 mM glucose + 10% dialyzed FBS, 0.0211 µM | 111 | 104 | 111
RPMI 5 mM glucose + 10% dialyzed FBS, 0.0632 µM | 104 | 98.3 | 104
RPMI 5 mM glucose + 10% dialyzed FBS, 0.19 µM | 115 | 106 | 117
RPMI 5 mM glucose + 10% dialyzed FBS, 0.569 µM | 98.9 | 102 | 107
RPMI 5 mM glucose + 10% dialyzed FBS, 1.71 µM | 89 | 88.3 | 124
RPMI 5 mM glucose + 10% dialyzed FBS, 5.12 µM | 64.7 | 57.1 | 86.4
RPMI 5 mM glucose + 10% dialyzed FBS, 15.4 µM | 49.5 | 35.4 | 56
RPMI 5 mM glucose + 10% dialyzed FBS, 46.1 µM | 42.2 | 30.3 | 32.6

AUC of viability dose-response curve
Conditions | NOMO1 [4] | P12-Ichikawa [6] | SEM cells [5]
HPLM + 10% dialyzed FBS | 402 | 406 | 405
RPMI 5 mM glucose + 10% FBS | 412 | 393 | 396
RPMI 5 mM glucose + 10% dialyzed FBS | 408 | 400 | 427
